Literature values as cited in paper PMC10097024, “Cytotoxic and Antibacterial Prenylated Acylphloroglucinols from Hypericum olympicum L” (Plants, 2023).
In brackets after ≈: the same amount, converted by molar mass. Several values for one entry are separate records, joined by “and”; a condition that tells them apart may be missing. Identical values can stand only once. Like-named read-outs stand apart in the source and are kept apart here.

Experiments:
[1] = tested on: Gram-negative bacteria, such as E. coli and fungi; settings: cited from earlier work
[2] = tested on: Corynebacterium diphtherie; settings: cited from earlier work
MDA-MB-231 cells = settings: cited from earlier work
MRSA = settings: MRSA; cited from earlier work
S. aureus = settings: cited from earlier work
leukemia U937 cells = settings: lowest IC50 value; cited from earlier work
E. faecalis = settings: cited from earlier work
[3] = tested on: prostate cancer cell PC-3; settings: cited from earlier work
Sarcina lutea = settings: cited from earlier work
K-562 cells = settings: K-562; cited from earlier work

## CC(C)=CCC[C@]1(C)[C@@H](CC=C(C)C)C[C@@]2(CC=C(C)C)C(=O)[C@]1(C(=O)C(C)C)C(=O)C(CC=C(C)C)=C2O [hyperforin]
[1]
  MIC: 400 µg/mL (≈ 745 µM)
[2]
  MIC: 0.1 mg/L and 0.19 μM
MDA-MB-231 cells
  IC50: 12 µM
MRSA
  MIC: 1 µg/mL (≈ 1.86 µM)
S. aureus
  MIC: 0.1 mg/L and 0.19 μM
S. aureus; listed as Hyperforin
  MIC: 50 mg/L (≈ 93.1 µM)
Leukemia U937 cells
  IC50: 1.8 µM
E. faecalis
  MIC: 1 µg/mL (≈ 1.86 µM)
[3]
  IC50: 37 µM
Sarcina lutea
  MIC: 0.1 mg/L and 0.19 μM
K-562 cells
  IC50: 21 µM
